Laboratory results taken from patent US20170159129A1, “METHODS FOR DETECTING TELOMERE MAINTENANCE MECHANISMS” (priority 2015, published 2017).

Tested on: ALT+ cell lines U2OS, Saos-2 and G-292
Assay: Flow-FISH G to C ratio assay for inhibition of ALT activity in ALT+ cell lines
Format: cell-based
Conditions: ALT+ cell lines incubated with 3 mM HU for 48 hours; untreated ALT+ lines above 0.8; ratio below 0.8 indicates a decrease in ALT activity
Text: The present disclosure is directed to a novel improvement of flow-FISH that has been adapted for quantifying ALT activity in a cell. Briefly, cells to be analyzed are first mixed with an internal standard for telomeric DNA content. In one embodiment, the 1301 cell line, a T-cell leukemia cell line with long homogeneous telomeres is used. In other embodiments, flow cytometry microbeads with telomeric oligonucleotides can also be used to provide a standard. […] In some embodiments, the labels have the same fluorescence and stability characteristics (e.g. FITC). In other embodiments, the labels for the two probes may be different and have different fluorescence and stability characteristics. […] After incubation, cells are washed in flow cytometry staining buffer and then analyzed by flow cytometry.
Relative C-strand content and relative G-strand content of the sample cells is determined, and a ratio of G content to C content calculated. First, the mean fluorescence of the probes is measured for both sample cells and standard. […] The fluorescent marker in the standard allows for identification of the internal standard and separation of its Tel G and Tel C probe fluorescence. […]

Structure (SMILES): NC(=O)NO [hydroxyurea]
- G to C ratio (relative telomeric G content to C content, relative to 1301 cell standard): below 0.8
